From patent publication US20220135968A1, “TREATMENT OF SYNUCLEINOPATHY AND ANIMAL MODELS OF SYNUCLEINOPATHY” (TORREY PINES LAW GROUP, PC, priority 2018, published 2022)
“Also recorded” adds a separate entry of the source.

Assays:
[1] = system: patients; details: cited from earlier work; for disease symptoms in patients: treatment reported in literature
[2] = system: Parkinson's mouse models; details: Parkinson's mouse models (Patki, 2011); cited from earlier work
[3] = system: MNT-1 cells; experiment: Immunofluorescence staining of intracellular α-synuclein in MNT-1 cells; type: cell-based, human
Text: (§1) FIGS. 1-6 show the induction of synucleinopathy in vitro and in vivo upon exposure to α-MSH employing the MNT-1 cell line (a gift from Michael S. Marks, Ph.D.) as an in vitro model of neuromelanin-containing neurons and the mouse administered α-MSH by intranasal route, respectively. […] Additionally, rapamycin induced autophagy was reduced in the prescence of α-MSH (FIG. 1A). Normally an increase in melanin production by MNT-1 is observed in the presence of rapamycin, since rapamycin induces autophagy and autophagy-related genes that promote melanogenesis. Melanin levels serve as a reliable readout of autophagy in MNT-1 (Kalie, 2013). Indeed, a decrease in melanin was observed when autophagy was inhibited in melanocytes (Zhang, 2015).
FIGS. 2C, 3, and 4C show human ASIP inhibiting the effects of α-MSH in cellular models and is an effective therapeutic for preventing and reversing synuclein pathology. ASIP was tested as a therapeutic for synucleinopathy in the in vitro cellular model of neuromelanin-containing neurons modeled by MNT-1 cells. […] Immunofluorescence from the α-MSH and ASIP treated cells display similar quantity of α-synuclein compared to healthy, non-treated cells. […]

[4] = system: mice; experiment: Induction of synucleinopathy in mice by intranasal α-MSH, gait on rotorod; type: in vivo, mouse; details: α-MSH intranasal left nostril every other day for one month
Text: FIGS. 5A-B depict the in vivo induction of synucleinopathy in mice by α-MSH. FIG. 5A is a drawing showing the administration of α-MSH into the left nostril of the mouse and a timeline showing frequency of administration and behavioral testing performed by rotorod. FIG. 5B is a series of rotorod testing photographs of a mouse chronically administered α-MSH by intranasal route for a period of 1 month to induce synucleinopathy (see FIG. 5a).
Three mice were given the inducer, α-MSH, which was administered once every other day for one month through an intranasal route through the left nostril (FIG. 5a), and one mouse not subjected to the α-MSH inducer served as a healthy control. Observations and measurements were taken weekly at the end of α-MSH administration. […] The control mouse not subjected to α-MSH maintained normal gait and leg movement. Gait impairment observed in the three mice given the α-MSH, is characteristic of motor symptoms associated with PD and MSA symptoms. Moreover, the time-dependent intensified serverity of gait impairment after α-MSH administration is indicative of disease progression as measured through manisfestation of worsening physical symptoms. […]
Three mice were given the inducer, α-MSH, through an intranasal route and one mouse was not subjected to α-MSH. The gait of all four mice was monitored every […] after subjection to one month of α-MSH treatment. […]

[5] = system: MNT-1 cells; experiment: Rapamycin-induced autophagy in MNT-1 cells, melanin content as readout; type: cell-based, human; details: autophagy induced by rapamycin, exposure to α-MSH, FIG. 1A
Text: FIG. 1A is a bar chart depicting α-MSH disabling autophagy in MNT-1 cells when autophagy is induced by rapamycin.
as §1
A human pigmented cell line MNT-1 was utilized as a model for pigmented dopaminergic neurons to assess synuclein pathology following exposure to the inducer, α-MSH. […] Additionally, cell autophagy induced by rapamycin or starvation was disabled (FIGS. 1A and 1B). […] With time, vulnerable cells begin to die and undergo apoptotic cell death as measured by caspase activity (FIG. 4B). α-Synuclein accumulation and aggregation, loss of melanin and cell death by apoptosis are cardinal features observed in synuclein diseases such as PD and MSA.

[6] = system: MNT-1 cells; experiment: Starvation-induced (nutrient-depleted) autophagy and melanin formation in MNT-1 cells; type: cell-based, human; details: starved MNT-1 cells, α-MSH treated vs untreated, FIG. 1B
Text: FIG. 1B is a photograph of cells in wells of a culture plate depicting starvation-induced autophagy in cells is inhibited by α-MSH resulting in inhibition of melanin production.
as §1
A human pigmented cell line MNT-1 was utilized as a model for pigmented dopaminergic neurons to assess synuclein pathology following exposure to the inducer, α-MSH. […] With time, vulnerable cells begin to die and undergo apoptotic cell death as measured by caspase activity (FIG. 4B). α-Synuclein accumulation and aggregation, loss of melanin and cell death by apoptosis are cardinal features observed in synuclein diseases such as PD and MSA.

[7] = system: MNT-1 cells; experiment: Glucose consumption of cells in culture exposed to α-MSH; type: cell-based, human; details: α-MSH exposed vs not exposed cells, low nutrient conditions, FIG. 4A
[8] = system: substantia nigra of mouse; experiment: Immunohistochemistry of mouse brain sections for alpha-synuclein; type: in vivo; details: mouse given α-MSH in left nostril, anti-mouse alpha synuclein staining, FIG. 6a
Procedure: FIGS. 6A-B are immunohistochemistry microscopy photographs of brain sections stained with anti-mouse alpha synuclein (BD Biosciences, Clone 42/α-Synuclein).
Three mice were given the inducer, α-MSH, which was administered once every other day for one month through an intranasal route through the left nostril (FIG. 5a), and one mouse not subjected to the α-MSH inducer served as a healthy control. Observations and measurements were taken weekly at the end of α-MSH administration. […] The control mouse not subjected to α-MSH maintained normal gait and leg movement. Gait impairment observed in the three mice given the α-MSH, is characteristic of motor symptoms associated with PD and MSA symptoms. Moreover, the time-dependent intensified serverity of gait impairment after α-MSH administration is indicative of disease progression as measured through manisfestation of worsening physical symptoms. A cardinal feature of synucleinopathy pathology is the presence of aggregated intracellular alpha-synuclein, which is the predominant constituent of Lewy bodies and glial cytoplasmic inclusions (GCIs) observed in the affected regions of the brain in PD, MSA and DLB. […] Pathology was absent in the control mouse not subjected to α-MSH (FIG. 6b).

[9] = system: MNT-1 cells; experiment: Apoptosis by fluorescence-based detection of activated caspases (microscopy, flow cytometry); type: cell-based, human; details: FIG. 4B
Text: (§2) FIGS. 4A-C depict the mechanism of cell death induced by α-MSH and inhibition by ASIP, which blocks cell death. […] Vulnerable cells appear with higher fluorescence intensity for the marker of apoptosis, while untreated cells remain alive and show only background fluorescence (top-left panel). […] FIG. 4C is a bar chart depicting ASIP blocking α-MSH effects and protecting against cell death.
as §1

[10] = system: MNT-1 cells; experiment: Cell viability of α-MSH exposed cells with ASIP; type: cell-based, human; details: α-MSH exposed cells with 200 nM ASIP vs without ASIP, FIG. 4C
Text: as §2
(§3) FIGS. 2C, 3, and 4C show human ASIP inhibiting the effects of α-MSH in cellular models and is an effective therapeutic for preventing and reversing synuclein pathology. ASIP was tested as a therapeutic for synucleinopathy in the in vitro cellular model of neuromelanin-containing neurons modeled by MNT-1 cells. […] Immunofluorescence from the α-MSH and ASIP treated cells display similar quantity of α-synuclein compared to healthy, non-treated cells. This indicates ASIP inhibits the accumulation and aggregation of intracellular α-synuclein, and additionally has the potential to reverse the accrual of toxic protein aggregates and reverse impairment of autophagy. […] Thus, as a therapeutic ASIP promotes an environment ideal for recovery and is amenable for cell restoration strategies. Based on the in vitro cellular model presented herein, ASIP halts induction and progression of synucleinopathy and reverses the disease.

[11] = system: MNT-1 cells; experiment: ASIP reversal of α-MSH induced block in autophagy, melanin content; type: cell-based, human; details: α-MSH exposed cells treated with ASIP vs not treated, FIG. 3
Procedure: as §3

## COc1ccc2[nH]cc(CCNC(C)=O)c2c1 [melatonin]
[1]
  disease symptoms in patients: improved PD symptoms
[2]
  locomotor deficits: stalled locomotor deficits

## Pro-Leu-Gly-NH2
[1]
  disease symptoms in patients: improvement in disease symptoms

## α-Melanocyte Stimulating Hormone [α-MSH]
[3]; MNT-1 cells exposed to α-MSH vs not exposed, FIG. 2B
  accumulation and aggregation of intracellular α-synuclein: inducing accumulation and aggregation of α-synuclein; also recorded: increase in intensity of immunofluorescence staining of intracellular α-synuclein
[4]; four, six and eight weeks after
  gait / leg impairment: progressive leg impairment; also recorded: impaired/weakened right hind leg, loss of symmetry in gait; also recorded: progressive weakness and deteriorating motor control
[4]; two weeks after end of treatment
  gait / leg impairment: No apparent leg impairment; also recorded: normal gait; also recorded: No significant gait impairment
[5]
  rapamycin-induced cellular autophagy / melanin levels: disabled; also recorded: lower melanin levels; also recorded: reduced
[6]
  starvation-induced autophagy / melanin formation: lack of melanin; also recorded: melanin formation is not observed; also recorded: inhibited autophagy and melanin formation
[7]
  glucose consumption: glucose consumption is observed to be faster; also recorded: consume glucose faster than untreated cells
[8]
  alpha-synuclein aggregation in substantia nigra: synuclein pathology was observed in the substantia nigra; also recorded: alpha-synuclein aggregation observed in a neuron located in the left substantia nigra; also recorded: Lewy body-like aggregate of alpha-synuclein in the left substantia nigra
[9]; 4, 7 and 9 days of exposure to α-MSH vs medium alone
  apoptotic events (flow cytometry, marker of apoptosis): increasing apoptotic events
[9]; α-MSH exposed cells, 6 days
  cell death by apoptosis (fluorescence microscopy): die by apoptosis

## β-Melanocyte Stimulating Hormone [β-MSH]
[1]; patients treated with β-MSH (Cotzias, 1967)
  skin darkening in treated patients: darkenening of skin of treated patients
[1]
  disease symptoms in patients: worsening of Parkinsonian symptoms

B1: Agouti Signaling Protein (protein, UniProt P42127 23-132, looked up)
Agouti-signaling protein: HLPPEEKLRDDRSLRSNSSVNLLDVPSVSIVALNKKSKQIGRKAAEKKRSSKKEASMKKVVRPRTPLSAPCVATRNSCKPPAPACCDPCASCQCRFFRSACSCRVLSLNC
[3]; MNT-1 cells exposed to α-MSH and ASIP, FIG. 2C
  inhibition of α-MSH induced α-synuclein accumulation: halt α-synuclein accumulation and aggregation induced by α-MSH; also recorded: inhibition of α-MSH induced accumulation of α-synuclein; also recorded: decreased levels of α-synuclein measured by immunofluorescence
[10]
  cell viability (protection against cell death): protects against cell death; also recorded: viability is higher; also recorded: Cells maintain viability
[11]
  melanin content (restoration of cellular autophagy): restoring melanin production; also recorded: increase in melanin content; also recorded: restoration of melanin levels
